According to ChEMBL document CHEMBL5579882, “Synthesis and Photodynamic Activities of Pyridine- or Pyridinium-Substituted Aza-BODIPY Photosensitizers” (J Med Chem, 2024):
pIC50: −log10 of the molar value. Values belong to the compound of their own block, whether it stands above or below them. Activity calls are given as the source filed them. No cut-off for these calls is given here.

Legend:
[1] = test system: HepG2; test: Phototoxicity against human HepG2 cells assessed as inhibition of cell viability preincubated for 3 hrs followed by photo-irradiation of 54 J/cm2 for 24 hrs by CCK8 assay; type: functional, cell-based; details: HepG2, light or radiation study
[2] = Dark cytotoxicity against human HeLa cells assessed as inhibition of cell viability incubated for 3 hrs by CCK8 assay; type: toxicity, cell-based
[3] = Dark cytotoxicity against human HepG2 cells assessed as inhibition of cell viability incubated for 3 hrs by CCK8 assay; type: toxicity, cell-based
[4] = test system: HeLa; test: Phototoxicity against human HeLa cells assessed as inhibition of cell viability preincubated for 3 hrs followed by photo-irradiation of 54 J/cm2 for 24 hrs by CCK8 assay; type: functional, cell-based; details: light or radiation study
[5] = test system: HeLa; test: Antitumor activity against human HeLa cells xenografted in nude BALB/c nu/nu mouse assessed as decrease in tumor growth at 2.5 umol/kg, iv with light irradiation of 30 J/cm2 for 1 hr measured after 24 hrs; type: functional, organism-based; details: dose 2.5 µmol/kg, time 25.0 hrs
[6] = Drug uptake in human HeLa cells assessed as increase in red fluorescence signal at 5 uM incubated for 3 hrs by fluorescence imaging based analysis; type: ADME, cell-based
[7] = Drug uptake in endoplasmic reticulum of human HeLa cells at 5 uM incubated for 3 hrs by ER-Tracker Green dye based analysis; type: ADME, subcellular
[8] = test system: HeLa; test: Induction of cell death in human HeLa cells assessed as increase in bright red signal at 400 nM incubated for 3 hrs followed by light irradiation of 54 J/cm2 in presence of Fer-1 inhibitor by Calcein-AM/PI staining based analysis; type: functional
[9] = Drug uptake in mitochondria of human HeLa cells at 5 uM incubated for 3 hrs by MitoTracker Green FM dye based analysis; type: ADME
[10] = test system: HeLa; test: Induction of cell death in human HeLa cells assessed as increase in bright red signal at 400 nM incubated for 3 hrs followed by light irradiation of 54 J/cm2 by Calcein-AM/PI staining based analysis; type: functional
[11] = test system: HeLa; test: Antitumor activity against human HeLa cells xenografted in nude BALB/c nu/nu mouse assessed as pathological damage in tumor at 2.5 umol/kg, iv with light irradiation of 30 J/cm2 for 1 hr measured after 24 hrs by H and E staining based analysis; type: functional, organism-based; details: dose 2.5 µmol/kg, time 25.0 hrs
[12] = test system: HeLa; test: Induction of lipid peroxidation in human HeLa cells assessed as increase in green fluorescence with a light dose of 54 J/cm2 at 100 to 400 nM incubated for 3 hrs by BODIPY 581/591 C11 dye based analysis; type: functional, cell-based; details: dose 100-400 nM
[13] = Toxicity in nude BALB/c nu/nu mouse bearing human HeLa cells assessed as pathological change in liver at 2.5 umol/kg, iv with light irradiation of 30 J/cm2 for 1 hr measured for 24 hrs by H and E staining based analysis; type: organism-based; details: in vivo, 25 h, dose 2.5 µmol/kg
[14] = Drug uptake in lysosome of human HeLa cells at 5 uM incubated for 3 hrs by LysoTracker Green DND-26 dye based analysis; type: ADME, subcellular
[15] = Toxicity in nude BALB/c nu/nu mouse bearing human HeLa cells assessed as pathological change in spleen at 2.5 umol/kg, iv with light irradiation of 30 J/cm2 for 1 hr measured for 24 hrs by H and E staining based analysis; type: organism-based; details: in vivo, 25 h, dose 2.5 µmol/kg
[16] = test system: HeLa; test: Induction of cell death in human HeLa cells under dark condition upto 400 nM incubated for 3 hrs by Calcein-AM/PI staining based analysis; type: functional
[17] = test system: HeLa; test: Induction of cell death in human HeLa cells assessed as increase in bright red signal at 400 nM incubated for 3 hrs followed by light irradiation of 54 J/cm2 in presence of DFO inhibitor by Calcein-AM/PI staining based analysis; type: functional
[18] = Toxicity in nude BALB/c nu/nu mouse bearing human HeLa cells assessed as pathological change in heart at 2.5 umol/kg, iv with light irradiation of 30 J/cm2 for 1 hr measured for 24 hrs by H and E staining based analysis; type: organism-based; details: in vivo, 25 h, dose 2.5 µmol/kg
[19] = Drug uptake in lipid droplet of human HeLa cells at 5 uM incubated for 3 hrs by BODIPY 493/503 dye based analysis; type: ADME, subcellular
[20] = test system: HeLa; test: Induction of ROS generation in human HeLa cells without light irradiation at 200 nM incubated for 3 hrs by H2DCFDA staining based analysis; type: functional, cell-based
[21] = Biodistribution in skin of nude BALB/c nu/nu mouse bearing human HeLa cells at 2.5 umol/kg, iv measured for 3 hrs by IVIS analysis; type: ADME, organism-based, Skin of body; details: in vivo, dose 2.5 µmol/kg
[22] = Biodistribution in kidney of nude BALB/c nu/nu mouse bearing human HeLa cells at 2.5 umol/kg, iv measured for 3 hrs by IVIS analysis; type: ADME, organism-based; details: in vivo, dose 2.5 µmol/kg
[23] = Biodistribution in lung of nude BALB/c nu/nu mouse bearing human HeLa cells at 2.5 umol/kg, iv measured for 3 hrs by IVIS analysis; type: ADME, organism-based; details: in vivo, dose 2.5 µmol/kg
[24] = test system: HeLa; test: Induction of cell death in human HeLa cells assessed as increase in bright red signal at 400 nM incubated for 3 hrs followed by light irradiation of 54 J/cm2 in presence of Lip-1 inhibitor by Calcein-AM/PI staining based analysis; type: functional
[25] = Toxicity in nude BALB/c nu/nu mouse bearing human HeLa cells assessed as steady body weight increment at 2.5 umol/kg, iv with light irradiation at 30 J/cm2 for 1 hr measured for 24 hrs; type: organism-based; details: in vivo, 25 h, dose 2.5 µmol/kg
[26] = Toxicity in nude BALB/c nu/nu mouse bearing human HeLa cells assessed as drug tolerance at 2.5 umol/kg, iv with light irradiation of 30 J/cm2 for 1 hr measured for 24 hrs; type: organism-based; details: in vivo, 25 h, dose 2.5 µmol/kg
[27] = Biodistribution in liver of nude BALB/c nu/nu mouse bearing human HeLa cells at 2.5 umol/kg, iv measured for 3 hrs by IVIS analysis; type: ADME, organism-based; details: in vivo, dose 2.5 µmol/kg
[28] = Biodistribution in spleen of nude BALB/c nu/nu mouse bearing human HeLa cells at 2.5 umol/kg, iv measured for 3 hrs by IVIS analysis; type: ADME, organism-based; details: in vivo, dose 2.5 µmol/kg
[29] = Toxicity in nude BALB/c nu/nu mouse bearing human HeLa cells assessed as pathological change in kidney at 2.5 umol/kg, iv with light irradiation of 30 J/cm2 for 1 hr measured for 24 hrs by H and E staining based analysis; type: organism-based; details: in vivo, 25 h, dose 2.5 µmol/kg
[30] = Toxicity in nude BALB/c nu/nu mouse bearing human HeLa cells assessed as pathological change in lung at 2.5 umol/kg, iv with light irradiation of 30 J/cm2 for 1 hr measured for 24 hrs by H and E staining based analysis; type: organism-based; details: in vivo, 25 h, dose 2.5 µmol/kg
[31] = test system: HeLa; test: Induction of ROS generation in human HeLa cells assessed as increase in green fluorescence incubated for 3 hrs followed by light irradiation of 54 J/cm2 by H2DCFDA staining based analysis; type: functional, cell-based; details: dose 25-200 nM
[32] = test system: HeLa; test: Biodistribution in human HeLa cells xenografted in nude BALB/c nu/nu mouse at 2.5 umol/kg, iv measured for 3 hrs by IVIS analysis; type: ADME, organism-based; details: in vivo, dose 2.5 µmol/kg
[33] = Drug uptake in human HeLa cells assessed as fold increase in fluorescence intensity at 5 uM incubated for 3 hrs by fluorescence imaging based analysis relative to control; type: ADME, cell-based

Structure (SMILES): COc1ccc(C2=[N+]3C(=Nc4c(-c5ccncc5)c5c(n4[B-]3(F)F)-c3ccc(OC)cc3CC5)C(c3ccccc3)=C2I)cc1
pIC50 [1]: 7.45 | IC50 at 3 h [2]: 37200 nM | IC50 at 3 h [3]: > 50000 nM | pIC50 [4]: 7.47

Structure (SMILES): COc1ccc(-c2c(I)c(-c3ccc[n+](C)c3)c3n2[B-](F)(F)[N+]2=C4C(=C(c5ccccc5)C2=N3)CCc2cc(OC)ccc24)cc1
IC50 at 3 h [2]: 1200 nM | pIC50 [4]: 8.22

Structure (SMILES): COc1ccc(C2=[N+]3C(=Nc4c(-c5cccnc5)c5c(n4[B-]3(F)F)-c3ccc(OC)cc3CC5)C(c3ccccc3)=C2I)cc1
pIC50 [1]: 8.12 | IC50 at 3 h [2]: 37400 nM | IC50 at 3 h [3]: > 50000 nM | pIC50 [4]: 7.72

Drug uptake [6]: Active
Structure (SMILES): COc1ccc(C2=[N+]3C(=Nc4c(-c5ccccc5)c5c(n4[B-]3(F)F)-c3ccc(OC)cc3CC5)C(c3ccccc3)=C2I)cc1
Activity [5]: Active | IC50 at 3 h [2]: > 50000 nM | IC50 at 3 h [3]: > 50000 nM

Drug uptake [7]: Not Active | Drug uptake [9]: Not Active | Drug uptake [14]: Not Active | Drug uptake [19]: Active | Drug uptake [21]: Not Active | Drug uptake [22]: Active | Drug uptake [23]: Active | Drug uptake [27]: Active | Drug uptake [28]: Active | Drug uptake [32]: Active | fold change (FC) [33]: 6
Structure (SMILES): COc1ccc(-c2c(I)c(-c3cccnc3)c3n2[B-](F)(F)[N+]2=C4C(=C(c5ccccc5)C2=N3)CCc2cc(OC)ccc24)cc1
Activity [5]: Active | pIC50 [1]: 8.16 | Activity [8]: inactive | IC50 at 3 h [2]: > 50000 nM | Activity [10]: Active | IC50 at 3 h [3]: > 50000 nM | Activity [11]: Active | Activity [12]: Active | Activity [13]: Non-Toxic | Activity [15]: Non-Toxic | Activity [16]: inactive | Activity [17]: Active | Activity [18]: Non-Toxic | Activity [20]: inactive | Activity [24]: inactive | Activity [25]: Non-Toxic | Activity [26]: Non-Toxic | pIC50 [4]: 7.98 | Activity [29]: Non-Toxic | Activity [30]: Non-Toxic | Activity [31]: Dose-Dependent Effect

Structure (SMILES): COc1ccc(C2=[N+]3C(=Nc4c(-c5ccc[n+](C)c5)c5c(n4[B-]3(F)F)-c3ccc(OC)cc3CC5)C(c3ccccc3)=C2I)cc1
IC50 at 3 h [2]: 2300 nM | pIC50 [4]: 7.38

Structure (SMILES): COc1ccc(-c2c(I)c(-c3ccncc3)c3n2[B-](F)(F)[N+]2=C4C(=C(c5ccccc5)C2=N3)CCc2cc(OC)ccc24)cc1
pIC50 [1]: 7.95 | IC50 at 3 h [2]: > 50000 nM | IC50 at 3 h [3]: > 50000 nM | pIC50 [4]: 8.21
